The subject of data set [1] is R439H mice. To be noted: cited from earlier work.
For data set [2], the system named is isolated colon of WT and R439H mice. Briefly: Colonic migrating motor complexes (CMMC) measured in vitro. Also on record: species or system mouse. How it is done: The entire colon (5-6 cm) was removed and mounted to allow spontaneous motor patterns to be video-imaged for the construction of spatiotemporal maps (Roberts et al, 2008; Roberts et al, 2007). The isolated colon was incubated in Krebs' solution until endogenous fecal pellets were expelled. The empty colon was cannulated at both ends, mounted in a horizontal organ bath, and both luminal and serosal compartments were superfused with oxygenated Krebs' solution at 35° C. The height of a reservoir connected to the oral cannula was adjusted to maintain intraluminal pressure at +2 cm HO. The anal cannula provided a maximum of 2 cm of back-pressure. The contractile activity was imaged with a Logitech Quickcam pro camera positioned 7-8 cm above the gut. Preparations were equilibrated for 30 min and four 15 min videos were captured. Spatiotemporal maps of the diameter at each point along the proximo-distal length of colon were constructed and used to quantify the frequency of CMMCs as well as the velocity and length of their propagation (Margolis et al, 2016b; Welch et al, 2014). CMMCs were defined as constrictions of the diameter of the bowel that propagated for at least 50% of the length of the preparations. For studies utilizing IR 5-HTP, a dose response curve was conducted whereby the isolated colons were exposed to concentrations of 5-HTP ranging from 1 to 10 μM, both intraluminally and extraluminally.

Data set [3] deals with WT and R439H mice. Kind of data set: Colonic propulsion (glass bead expulsion time). Format: in vivo, mouse. The method, then:
Mice were anesthetized with isoflurane (Baxter Pharmaceutical Products) and a glass bead (3 mm in diameter) was pushed with a fire-polished glass rod through the anus into the colon to a distance of 2 cm from the anal verge (Li et al, 2006). The time required for the mice to expel the bead was determined and used to estimate in vivo colorectal propulsion.

The conditions of data set [4]: one rodent study; cited from earlier work.
Data set [5] concerns mice. Briefly: Morphine-induced constipation (colonic motility). The format is in vivo, mouse. The text has this:
FIG. 8. Morphine-induced constipation and reversal by 5-HTP in mice.

For data set [6] the following is noted: after administration of exogenous 5-HTP; cited from earlier work.
The test system of data set [7] is WT and R439H mice. Kind of data set: Total gastrointestinal transit time (oral carmine red). To be noted: 30 mg/kg intraperitoneal. Format: in vivo, mouse. The method, then: Carmine red (300 μl; 6%; Sigma-Aldrich) suspended in 0.5% methylcellulose, which cannot be absorbed, was administered by gavage to study total GI transit time. Total GI transit time was considered as the interval between gavage and the appearance of carmine red in stool (Kimball et al, 2005).

Data set [8] can be described thus: Human 5-HTP gastrointestinal regional absorption study (plasma 5-HTP). The format is in vivo. To be noted: for bioavailability: read-out: Absolute bioavailability F; for Cmax: read-out: Maximal average 5-HTP plasma (CMax) levels. The method, then: Determination of absolute and regional intestinal bioavailability of 5-HTP in humans.
The free base form of 5-HTP was used (5-HTP has a water solubility of >10 mg/mL).
Colonic: 5-HTP free base saline solution 200 mg.
Intravenous: 5-HTP free base saline solution 50 mg.
Oral/Upper GI: Two 5-HTP gelatin tablets of 100 mg 5-HTP free base (200 mg total dose).
Healthy male and female volunteers aged 18 to 65 years with a body mass index (BMI) of 19 to 28 were eligible for the study. Subjects were admitted to the investigational medical unit (IMU) 2 h before 5-HTP administration and remained at the IMU for 24 h following, for blood sampling and safety assessment.
All subjects (n=12) received 5-HTP mg on 3 occasions. (1) Intra-colonic 200 mg 5-HTP solution by colonoscopy. (2) Intravenous 50 mg (IV). (3) Upper GI (oral) 5-HTP 200 mg. At least 6 days passed between each visit.
Plasma samples were collected over 24-hours after 5-HTP administration. Plasma samples were stored at −80° C. until analysis. 5-HTP and the metabolite 5-hydroxyindole-acetic-acid (5-HIAA) were quantified by liquid chromatography with mass-spectrometry detection.
The PK data were analyzed using noncompartmental (NCA) and compartmental (mixed effects) mathematical modelling approaches, to calculate area 5-HTP plasma under the curve (AUC) for each subject for each 5-HTP administration.
From FIG. 10, the area under the curve (AUC) for each route of administration was obtained, which was then used to calculate the absolute bioavailability (F) of the oral and colon routes of administration. For example, the formula for calculating F for a drug administered by the oral route (po) is given below (D is dose): […]

Data set [9] relates to animals. Briefly: Colonic motility, prucalopride vs 5-HTP. To be noted: in animals. The format is in vivo. The text has this: FIG. 9. Colonic motility. Effect of prucalopride vs 5-HTP.
A short description of data set [10]: Water solubility. Format: physicochemical. The settings on record: free base.

“Also recorded” adds a separate entry of the source. Like-named read-outs stand apart in the source and are kept apart here. Where only a bound is given, the exact number is not on record here.

Here are results for 3 compounds from patent publication US20210290593A1, “USE OF SUSTAINED-RELEASE 5-HYDROXYTRYPTOPHAN IN TREATING GASTROINTESTINAL DISORDERS” (Duke University, priority 2018, published 2021).

As to `CNCCC(Oc1ccc(C(F)(F)F)cc1)c1ccccc1` (stereo not shown) [fluoxetine], in [1], the “CNS 5-HT levels” value is recorded as “further decline in CNS 5-HT levels” and the Depressive behaviors entry is “worsened their depressive behaviors”.
What is called AUC is concentration integrated over time. A word on the bioavailability: it is the share of a dose that reaches the circulation, judged against a reference dose that is usually intravenous. For orientation: Cmax means the highest concentration seen after dosing. By solubility is commonly meant how much of the substance goes into solution per volume. Low values mean a poorly soluble substance, high ones a readily soluble substance. Take `N[C@@H](Cc1c[nH]c2ccc(O)cc12)C(=O)O` [5-HTP, 5-hydroxytryptophan]: the CMMC frequency in data set [2] (R439H colon, extraluminal 1 μM) was found to be 0.78±0.18 CMMC/min; in [2] (R439H colon, intraluminal 1 μM), 1.02±0.10 CMMC/min; in data set [2] (WT colon, extraluminal 1 μM) it was 0.60±0.20 CMMC/min; in [2] (WT colon, intraluminal 1 μM) it was 0.90±0.06 CMMC/min. Further, the CMMC velocity is recorded as 3.2±0.2 mm/s in data set [2] (R439H colon, extraluminal 1 μM); 2.7±0.2 mm/s in [2] (R439H colon, intraluminal 1 μM); 1.4±0.5 mm/s in data set [2] (WT colon, extraluminal 1 μM); 2.3±0.2 mm/s in [2] (WT colon, intraluminal 1 μM). Also, the “Time of colonic bead expulsion” value in [3] (30 mg/kg intraperitoneal) was 7.2 ± 1.6 min; in data set [3] (100 mg/kg intraperitoneal) it was 5.2 ± 1.6 min. For the same compound, the “Absorption by the colon vs the upper intestine” value in [4] was “absorbed equally well by the colon and the upper intestine”. Moreover, in data set [5] (5-HTP 30 mg/kg), the “Colonic motility, 5-HTP by itself” value was “enhanced colonic motility”. Further, the “Effect on morphine-induced constipation (colonic motility)” value in data set [5] (5-HTP 30 mg/kg with morphine 10 mg/kg) is on record as “reversed the morphine-induced constipation”. For the same compound, the “5-HTP plasma levels needed to produce systemic pharmacological effects” value in data set [6] is “over 100 ng/ml”. For the same compound, the “Total in vivo GI transit time” value in data set [7] was found to be 74.9 ± 19.5 min. In [8], the “Absorption in upper intestine compared to colon” value stood at 5 times. Moreover, the AUC was 2040 ng·h/mL in [8] (both sexes, plasma, intravenous dosing 50 mg); 1500 ng·h/mL in [8] (both sexes, plasma, oral dosing 200 mg); 312 ng·h/mL in data set [8] (both sexes, plasma, other: intra-colonic by colonoscopy, colonic dosing 200 mg). Also, the bioavailability in data set [8] (both sexes, plasma, oral 200 mg (upper GI tract)) worked out at 20%; in data set [8] (both sexes, plasma, other: intra-colonic by colonoscopy, intra-colonic 200 mg), 4%. The Cmax in data set [8] (both sexes, plasma, other: intra-colonic by colonoscopy, 200 mg, intra-colonic 200 mg) is 40 to 50 ng/mL; in data set [8] (both sexes, plasma, po, 200 mg, oral 200 mg), 370 ng/mL. For the same compound, the Relative upper GI:colon bioavailability in data set [8] (both sexes, plasma, other: upper GI (oral) and intra-colonic compared, 200 mg, read-out: Relative upper GI tract:colon bioavailability (RBA)) was found to be 20%. Besides, in [8] (intra-colonic 200 mg), the “Maximal average 5-HTP plasma (CMax) levels” value is 47 ng/mL. In addition, the “Efficacy (maximal effect) on colonic motility compared to prucalopride” value in data set [9] was “higher efficacy”. Further, the “Potency on colonic motility compared to prucalopride” value in [9] is recorded as “higher potency; also recorded: more potent than prucalopride at lower doses”. Also, the solubility in data set [10] is over 10000 µg/mL.
Take `CN1CC[C@]23c4c5ccc(O)c4O[C@H]2[C@@H](O)C=C[C@H]3[C@H]1C5` [Morphine, reference compound]: the Colonic motility entry in data set [5] (morphine 10 mg/kg) was “induced constipation, as determined by slowed colonic motility”.
